Here are results for 13 compounds from publication PMC5382548 (Scientific Reports, 2015).

The subject of experiment [1] is T-loop, a 26-mer hairpin double-stranded DNA. Briefly: FRET melting assay, T-loop hairpin ds-DNA. It is filed as binding. To be noted: ds-DNA 0.2 μM, ligand 1 μM, K-cacodylate buffer pH 7.4, 60 mM K+. As to the method:
(§1) Fluorescence resonance energy transfer (FRET) studies with DNA sequences labelled at the 5′ and 3′ ends, were conducted to evaluate the G4 DNA stabilizing properties of IQcs (at 0.1 to 5 μM ligand concentrations). The G4-forming sequence KRAS21R[11], together with T-loop, a 26-mer hairpin double-stranded DNA (ds-DNA) sequence were used in the first screening assay. Reproducible IQc dose-dependent melting curves (Sup. Inf.; Figure S3) and stabilization temperature (ΔTm) values were obtained (Figure 2 and Table S5).
(§2) Figure 2 FRET stabilization temperatures (ΔTm) of KRAS21R G4 and hairpin ds-DNA (T-loop) at 0.2 μM, in K-cacodylate buffer (pH = 7.4, 60 mM K^+), stabilized by IQc derivatives and TMPyP4 at 1 μM. ^a) SD ≤ 0.2°C. TEXT PRINTED IN THE PICTURE: TMPyP4: ΔTm / °C ^a) (T-Loop): 16.0; ΔTm / °C ^a) (KRAS21R): 25.1 | 3e: ΔTm / °C ^a) (T-Loop): 6.5; ΔTm / °C ^a) (KRAS21R): 22.0 | 3d: ΔTm / °C ^a) (T-Loop): 5.6; ΔTm / °C ^a) (KRAS21R): 19.9 | 2d: ΔTm / °C ^a) (T-Loop): 6.1; ΔTm / °C ^a) (KRAS21R): 15.1 | 2a: ΔTm / °C ^a) (T-Loop): 1.5; ΔTm / °C ^a) (KRAS21R): 4.4 […]
(§3) Oligonucleotide sequences were purchased from Eurofins MWG Synthesis GmbH, Germany or STAB VIDA Genomics Lab, Caparica, Lisbon, Portugal. The labelled oligonucleotides used in the FRET assays had attached the donor fluorophore FAM (6-carboxyfluorescein) and the acceptor fluorophore TAMRA (6-carboxytetramethylrhodamine): KRAS21R: 5′-FAM-[…]-TAMRA-3′; KRAS32R: 5′-FAM-[…]-TAMRA-3′; UTR-1: 5′-FAM-GCGGCGGCGGAGG-TAMRA-3′; UTR-2: 5′-FAM-[…]-TAMRA-3; T-Loop:5′-FAM-[…]-TAMRA-3′; F21T: 5′-FAM-[…]-TAMRA-3′. Non-labelled oligonucleotides were used in FRET competition assays and in the spectroscopic studies: ds26: - d(5′-CAATCGGATCGAATT CGATCCGATTG-3′); KRAS21R: 5′-[…]-3′; HT21: 5′-[…]-3′. Each oligonucleotide was initially diluted to a storage solution at 100 μM in nuclease-free water (not DEPC-treated), purchased from Ambion Applied Biosystems UK.
(§4) The ability of indolo[3,2-c]quinolines to stabilize DNA sequences was investigated using a Fluorescence Resonance Energy Transfer (FRET) assay as reported elsewhere.
(§5) Figure S3 (cont.)| Concentration-dependent (0.1, 0.5, 1, 2, 3, 4 and 5 µM) FRET melting profiles of G4 structures and T-loop DNA with indolo[3,2-c]quinoline derivatives 1a, 2a-g and 3d-j in K-cacodylate buffer (pH 7.4, 60 mM K+). […]
(§6) Table S5 | FRET stabilization temperatures (ΔTm) of G4s sequences and ds-DNA (0.2 µM) stabilized by […]

For a further experiment, the system named is KRAS21R G4. Briefly: FRET melting assay, KRAS21R G4. It is filed as binding, human. Conditions: G4 0.2 μM, ligand 1 μM, K-cacodylate buffer pH 7.4, 60 mM K+. On the procedure: as §1, §2, §3, §4, §5, §6
For experiment [2], the system named is colon cancer cell lines with mutated KRAS. The experiment can be described thus: Anti-proliferative activity, colon cancer cell lines with mutated KRAS. It is filed as cell-based. To be noted: Homo sapiens; range over HCT116 and SW620. An excerpt:
These differences may be due to differing effects on cellular proliferation mechanisms, on cellular uptake and/or intracellular distribution. Assuming a passive diffusion membrane transport for IQcs, compound 2d is expected to accumulate more inside cells due to its predicted higher lipophilicity than compounds with an additional protonated basic group at physiologic pH (3d and 3e). Similarly, the tetra-cationic porphyrin TMPyP4, which is known to have low cell-membrane permeability, gave higher IC50 values.
HCT116 human colon carcinoma cells, SW620 human colorectal adenocarcinoma and HEK293 T human embryonic kidney cells were grown in Dulbecco's modified Eagle's medium (DMEM) supplemented with 10% fetal bovine serum, and 1% antibiotic/antimycotic (Invitrogen, Grand Island, NY, USA) and maintained at 37°C in a humidified atmosphere of 5% CO2. […] Following 72 h of compound exposure, cell viability was evaluated using the CellTiter 96 AQueous Non-Radioactive Cell Proliferation Assay (Promega, Madison, WI, USA), using 3-(4,5-dimethylthiazol-2-yl)-5-(3-carboxymethoxyphenyl)-2-(4-sulfophenyl)-2H-tetrazolium, inner salt (MTS) as previously described. Cell viability data were expressed as mean ± SEM or mean ± SD from at least three independent experiments. IC50 and IC65 values were determined using GaphPad Prism v.5.00 (GraphPad Software). […]

Experiment [3] relates to SW620 metastatic colon cancer cells. Briefly: Guava ViaCount assay, SW620. It is filed as cell-based, human. Conditions: IC65 concentration, 72 h. An excerpt: The ability of IQcs to induce cell death in colon cancer cell lines with different genotypes (HCT116 and SW620) and in the non-malignant cell line HEK293T was studied by a Guava Via Count assay and compared with the behaviour of 5-FU and TMPyP4 at equitoxic concentrations (IC50 and IC65). Results in Figure 7 show dose-dependent induction of cell death, mainly by apoptosis, by all tested compounds in the HCT116 colon cancer cell line. […] In SW620 metastatic colon cancer cells, cell death induction was highly dependent on the number and position of side chains in IQc compounds. […]
Figure 7 Evaluation of the effect of IQc on cell viability using the ViaCount assay. […] Results are expressed as the mean percentage (%) of viable (white), mid-apoptotic (grey) and dead (black) cells ± SEM, of at least three different experiments, for (a) IC50, and for (b) IC65 compound concentrations. a, p < 0.05; b, p < 0.01 from DMSO (vehicle control); c, p < 0.05; and d, p < 0.01 from 5-FU. […]
Taqman Real-time PCR reactions were performed using 1.5 µg of total RNA, using High Capacity RNA to cDNA kit, according to the manufacturer`s instruction. […] The comparative threshold cycle method was used to calculate the amplification factor, where the threshold cycle (Ct) is defined as the cycle number at which the fluorescence passes the fixed threshold intensity level. […]

Another experiment has as its system HCT116 (colon). The experiment can be described thus: MTS short-term cytotoxicity assay, HCT116. In kind it is cell-based, human. To be noted: Homo sapiens, HCT-116; MTS assay, 72 h; read-out: IC50 HCT116. As to the method: (§7) Short-term anti-proliferative assays were carried out by two different assays using a panel of human cancer and non-malignant human cell lines. […] The transformed human embryonic kidney cell line HEK293T (wt KRAS) was sensitive to all tested drugs, including TMPyP4, a cationic porphyrin established as a G4 ligand, as well as the anticancer drug 5-fluorouracil (5-FU).
(§8) HCT116 human colon carcinoma cells, SW620 human colorectal adenocarcinoma and HEK293 T human embryonic kidney cells were grown in Dulbecco's modified Eagle's medium (DMEM) supplemented with 10% fetal bovine serum, and 1% antibiotic/antimycotic (Invitrogen, Grand Island, NY, USA) and maintained at 37°C in a humidified atmosphere of 5% CO2. Cells were seeded in 96 well plates at 5.000 cells/well. Twenty-four hours after cell plating, media was removed and replaced with fresh media containing test compounds and 5-FU (Sigma), a common cytotoxic agent used in colon cancer treatmen, or vehicle control (DMSO). Following 72 h of compound exposure, cell viability was evaluated using the CellTiter 96 AQueous Non-Radioactive Cell Proliferation Assay (Promega, Madison, WI, USA), using 3-(4,5-dimethylthiazol-2-yl)-5-(3-carboxymethoxyphenyl)-2-(4-sulfophenyl)-2H-tetrazolium, inner salt (MTS) as previously described. Cell viability data were expressed as mean ± SEM or mean ± SD from at least three independent experiments. IC50 and IC65 values were determined using GaphPad Prism v.5.00 (GraphPad Software). (Performed at Cell Function and Therapeutic Targeting Group, iMed.ULisboa)

Another experiment relates to SW620 (metastatic colon). Briefly: MTS short-term cytotoxicity assay, SW620. In kind it is cell-based. Conditions: Homo sapiens, SW-620; MTS assay, 72 h; read-out: IC50 SW620. As to the method: as §7, §8
On the technique in general: Tetrazolium dyes change colour on reduction, which living cells bring about.

Experiment [4] deals with HEK293T (embryonic kidney). The experiment can be described thus: MTS short-term cytotoxicity assay, HEK293T. In kind it is cell-based. Conditions: Homo sapiens, HEK-293T; MTS assay, 72 h; read-out: IC50 HEK293T. As to the method: as §7, §8

SMILES strings stand for the structures.

Consider `C[n+]1cc2c3ccccc3[nH]c2c2cc(NCCCN3CCCCC3)ccc21` [2e], for which the “FRET stabilization temperature ΔTm (T-loop)” value in experiment [1] stood at 5.2 °C. In addition, the “FRET stabilization temperature ΔTm (KRAS21R)” value in the experiment on KRAS21R G4 was found to be 13.4 °C.
Consider `O=c1[nH]cc(F)c(=O)[nH]1` [5-FU, 5-fluorouracil, reference compound], for which the IC50 (in general, the point on the concentration scale where inhibition reaches its midpoint) in experiment [2] was in the range of 2.38 to 5.39 µM. The “Cell death induced, SW620” value in experiment [3] is on record as above 20%.
Consider `CCN(CC)CCCC(C)Nc1ccc2c(c1)[nH]c1c2c[n+](C)c2ccc(NC(C)CCCN(CC)CC)cc12.[Cl-]` (centres unmarked) [3i], for which the “FRET stabilization temperature ΔTm (T-loop)” value in experiment [1] amounted to 2.4 °C. In addition, in the experiment with KRAS21R G4, the “FRET stabilization temperature ΔTm (KRAS21R)” value came out at 13.9 °C.
The corresponding values for `CCN(CC)CCNc1ccc2c(c1)c1[nH]c3ccccc3c1c[n+]2C` [2b] are 7.2 °C and 12.6 °C.
On to `Brc1ccc2c3cn(Cc4ccccc4)c4ccc(Br)cc4c-3nc2c1` [3c], for which, in experiment [1], the “FRET stabilization temperature ΔTm (T-loop)” value is 0.3 °C.
Turning to `CCN(CC)CCCC(C)Nc1ccc2c(c1)c1[nH]c3ccccc3c1c[n+]2C.[Cl-]` (centres unmarked) [2g], the “FRET stabilization temperature ΔTm (T-loop)” value in experiment [1] is 1.9 °C. In addition, the “FRET stabilization temperature ΔTm (KRAS21R)” value with KRAS21R G4 was 15.4 °C.
Turning to `CCN(CC)CCCNc1ccc2c(c1)[nH]c1c2c[n+](Cc2ccccc2)c2ccc(NCCCN(CC)CC)cc12.[Cl-]` [3j], in experiment [1], the “FRET stabilization temperature ΔTm (T-loop)” value turned out to be 5.2 °C. Also, the “FRET stabilization temperature ΔTm (KRAS21R)” value in the experiment with KRAS21R G4 is 16.8 °C.
As for `Brc1ccc2ncc3c4ccccc4[nH]c3c2c1` [compound 1], the IC50 was 9.91 µM with HCT116 (colon), 10.7 µM with SW620 (metastatic colon) and 8.03 µM in experiment [4]. Besides, in experiment [1], the “FRET stabilization temperature ΔTm (T-loop)” value came to 0.4 °C. For the same compound, the “FRET stabilization temperature ΔTm (KRAS21R)” value was “reduced or negligible ability to stabilize the KRAS21R G4” in the experiment on KRAS21R G4 and 0.7 °C in the experiment with KRAS21R G4 (listed as 1a).
Consider `C[n+]1cc2c3ccccc3[nH]c2c2cc(NCCCN3CCOCC3)ccc21` [2f], for which the “FRET stabilization temperature ΔTm (T-loop)” value in experiment [1] was 3.4 °C. For the same compound, the “FRET stabilization temperature ΔTm (KRAS21R)” value in the experiment with KRAS21R G4 was found to be 10.1 °C.
`CCN(CC)CCCC(C)Nc1ccc2[nH]c3c(c[n+](C)c4ccc(NC(C)CCCN(CC)CC)cc34)c2c1.[Cl-]` (centres unmarked) [3h]: in experiment [1], the “FRET stabilization temperature ΔTm (T-loop)” value turned out to be 1.7 °C. Also, the “FRET stabilization temperature ΔTm (KRAS21R)” value in the experiment on KRAS21R G4 is 11.8 °C.
With `C[n+]1cc2c3ccc(NCCCN4CCOCC4)cc3[nH]c2c2cc(NCCCN3CCOCC3)ccc21` [3g], the “FRET stabilization temperature ΔTm (T-loop)” value in experiment [1] amounted to 2.9 °C. For the same compound, the “FRET stabilization temperature ΔTm (KRAS21R)” value in the experiment with KRAS21R G4 stood at 13.2 °C.
Turning to `CC(C)NCCCNc1ccc2c(c1)c1[nH]c3ccccc3c1c[n+]2C` [2c], the “FRET stabilization temperature ΔTm (T-loop)” value in experiment [1] is 9.1 °C. In addition, the “FRET stabilization temperature ΔTm (KRAS21R)” value in the experiment with KRAS21R G4 worked out at 14.5 °C.
The corresponding values for `C[n+]1cc2c3cc(NCCCN4CCOCC4)ccc3[nH]c2c2cc(NCCCN3CCOCC3)ccc21` [3f] are 4.9 °C and 14.1 °C.
